Reference: patent publication US20250064729A1, “METHODS AND FORMULATIONS FOR IMPROVING THE PHARMACOKINETIC PROPERTIES OF NUTRACEUTICAL COMPOUNDS” (UNIVERSITY OF SOUTH CAROLINA, priority 2023, published 2025)
In brackets after ≈: the same amount, converted by molar mass.

Test: Solubility assessment under saturation conditions in simulated gastrointestinal media
Conditions: thermodynamic from solid
Experimental: Biological media (Biorelevant.com, London, UK) were prepared according to the manufacturer's instructions. […] The resulting suspensions were left for 1 h at room temperature under constant magnetic stirring. A 200-μl aliquot of each suspension was taken into an Eppendorf tube and centrifuged at top speed, and 100 μl supernatant was taken for UV spectrometer detection at 434 nm for emodin and 371 nm for quercetin. The concentration was calculated based on standard curves established using pure emodin or quercetin completely dissolved in methanol.

| solubility at 1 h (FaSSGF (fasted-state simulated gastric fluid), pH 1.6, fassgf or other biorelevant) [µg/mL] | solubility at 1 h (FaSSIF (fasted-state simulated intestinal fluid), pH 6.5, fassif) [µg/mL] | solubility at 1 h (FeSSIF (fed-state simulated intestinal fluid), pH 5, fessif) [µg/mL] | Compound | solubility at 1 h (pH 1.6, fassgf or other biorelevant) [µg/mL] | solubility at 1 h (pH 6.5, fassif) [µg/mL] |
| --- | --- | --- | --- | --- | --- |
| 20.8 (≈ 68.8 µM) | 43.4 (≈ 144 µM) | 146 (≈ 481 µM) | O=c1c(O)c(-c2ccc(O)c(O)c2)oc2cc(O)cc(O)c12 [Quercetin, 3,3′,4′,5,7-pentahydroxylflavone] |  |  |
|  |  |  | Cc1cc(O)c2c(c1)C(=O)c1cc(O)cc(O)c1C2=O [Emodin, 1,3,8-trihydroxy-6-methylanthraquinone] | 7.1 (≈ 26.3 µM) | 27.2 (≈ 101 µM) |
